Reference: the supplement of paper PMC10307832

Tests used:
Assay in all cases: relative viability (nuclei count vs DMSO), 5 days (fraction); higher = more cells survive
[1] = compound: CN(C)CC1=CC(=CC=C1)N=C(C2=CC=CC=C2)C3=C(NC4=C3C=CC(=C4)C(=O)N(C)C)O + CC(=O)c1c(C)c2cnc(Nc3ccc(N4CCNCC4)cn3)nc2n(C2CCCC2)c1=O [Palbociclib] (partner 0.5 µM)
Procedure, shortened: (§1)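 Relative viability divides the nuclei count in treated wells by that in vehicle wells. Lung cancer cell lines were seeded in 1536-well plates, dosed by pin tool the next day, and fixed and stained after 5 days in one step with final 0.05% Triton X-100, 1% formaldehyde and 1 ug/ml Hoechst. Dosing was a single drug or a fixed anchor-drug dose plus five library-drug doses (not always all listed) in √10 steps, and values are medians of duplicate plates imaged at 4×.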

[2] = compound: CN(C)CC1=CC(=CC=C1)N=C(C2=CC=CC=C2)C3=C(NC4=C3C=CC(=C4)C(=O)N(C)C)O + O=C(c1cc(Cc2n[nH]c(=O)c3ccccc23)ccc1F)N1CCN(C(=O)C2CC2)CC1 [Olaparib] (partner 8 µM)
Procedure, shortened: as §1

[3] = compound: CN(C)CC1=CC(=CC=C1)N=C(C2=CC=CC=C2)C3=C(NC4=C3C=CC(=C4)C(=O)N(C)C)O + Cc1nc(NC(=O)N2CCC[C@H]2C(N)=O)sc1-c1ccnc(C(C)(C)C(F)(F)F)c1 [Alpelisib] (partner 2 µM)
Procedure, shortened: as §1

[4] = compound: CN(C)CC1=CC(=CC=C1)N=C(C2=CC=CC=C2)C3=C(NC4=C3C=CC(=C4)C(=O)N(C)C)O + Nc1nc2[nH]cc(CCc3ccc(C(=O)N[C@@H](CCC(=O)O)C(=O)O)cc3)c2c(=O)[nH]1 [Pemetrexed] (partner 0.2 µM)
Procedure, shortened: as §1

| Cell Line | relative viability ([1]; first compound 0.08 µM) | relative viability ([1]; first compound 0.253 µM) | relative viability ([1]; first compound 0.8 µM) | relative viability ([1]; first compound 2.53 µM) | relative viability ([1]; first compound 8 µM) | relative viability ([2]; first compound 0.08 µM) | relative viability ([2]; first compound 0.253 µM) | relative viability ([2]; first compound 0.8 µM) | relative viability ([2]; first compound 2.53 µM) | relative viability ([2]; first compound 8 µM) | relative viability ([3]; first compound 0.08 µM) | relative viability ([3]; first compound 0.253 µM) | relative viability ([3]; first compound 0.8 µM) | relative viability ([3]; first compound 2.53 µM) | relative viability ([3]; first compound 8 µM) | relative viability ([4]; first compound 0.08 µM) | relative viability ([4]; first compound 0.253 µM) | relative viability ([4]; first compound 0.8 µM) | relative viability ([4]; first compound 2.53 µM) | relative viability ([4]; first compound 8 µM) |
| --- | --- | --- | --- | --- | --- | --- | --- | --- | --- | --- | --- | --- | --- | --- | --- | --- | --- | --- | --- | --- |
| 201T | 0.331 | 0.346 | 0.341 | 0.384 | 0.352 | 0.829 | 0.801 | 0.839 | 0.817 | 0.721 | 1 | 0.968 | 0.977 | 0.962 | 0.955 | 0.355 | 0.382 | 0.347 | 0.331 | 0.315 |
| A549 | – | – | – | – | – | 0.294 | 0.372 | 0.401 | 0.148 | 0.406 | 0.77 | 0.921 | 0.883 | 0.711 | 0.592 | – | – | – | – | – |
| A-427 | 0.558 | 0.5 | 0.508 | 0.505 | 0.465 | 0.716 | 0.711 | 0.754 | 0.707 | 0.711 | 1.04 | 1.04 | 1.09 | 1.03 | 1.07 | 1.06 | 0.993 | 1 | 0.955 | 0.926 |
| ABC-1 | 0.775 | 0.795 | 0.588 | 0.545 | 0.569 | 0.91 | 0.907 | 0.952 | 0.635 | 0.756 | 1.14 | 1.03 | 0.957 | 0.896 | 1.09 | – | – | – | – | – |
| BEN | 0.49 | 0.485 | 0.492 | 0.467 | 0.454 | 1.09 | 0.867 | 1.1 | 0.877 | 0.927 | 1.02 | 0.947 | 1.08 | 0.928 | 0.82 | 0.778 | 0.79 | 0.707 | 0.78 | 0.795 |
| CAL-12T | 0.436 | 0.431 | 0.208 | 0.524 | 0.43 | 0.704 | 0.67 | 0.81 | 0.654 | 0.829 | 1.19 | 1.29 | 1.18 | 1.11 | 1.15 | 1.17 | 1.22 | 1.14 | 1.34 | 1.25 |
| COR-L23 | 0.321 | 0.329 | 0.379 | 0.269 | 0.326 | 0.36 | 0.308 | 0.397 | 0.314 | 0.327 | 0.796 | 0.757 | 0.818 | 0.632 | 0.575 | 0.205 | 0.2 | 0.193 | 0.196 | 0.19 |
| COR-L 105 | 0.407 | 0.4 | 0.362 | 0.379 | 0.407 | 0.909 | 0.732 | 0.675 | 0.612 | 0.75 | 0.844 | 0.892 | 1.01 | 0.813 | 0.808 | 1.21 | 1.01 | 0.895 | 0.892 | 0.939 |
| ChaGo-K-1 | 0.918 | 0.905 | 0.971 | 0.94 | 0.839 | 0.386 | 0.458 | 0.41 | 0.355 | 0.415 | – | – | – | – | – | 0.251 | 0.267 | 0.259 | 0.258 | 0.265 |
| EKVX | 0.392 | 0.385 | – | 0.373 | 0.42 | 0.83 | 0.781 | – | 0.837 | 0.862 | 0.878 | 0.847 | 0.843 | 0.886 | 0.879 | 0.41 | 0.362 | – | 0.396 | 0.418 |
| EMC-BAC-2 | 0.561 | 0.533 | 0.511 | 0.494 | 0.542 | 0.507 | 0.526 | 0.543 | 0.449 | 0.507 | 0.763 | 0.743 | 0.71 | 0.738 | 0.67 | 0.437 | 0.445 | 0.582 | 0.435 | 0.508 |
| EPLC-272H | 0.309 | 0.35 | 0.269 | 0.357 | 0.301 | 0.696 | 0.888 | 0.689 | 0.664 | 0.583 | 0.935 | 0.872 | 0.825 | 1.06 | 0.856 | 0.355 | 0.345 | 0.284 | 0.314 | 0.398 |
| H3255 | 0.304 | 0.331 | 0.336 | 0.334 | 0.343 | 0.577 | 0.57 | 0.598 | 0.574 | 0.608 | 0.781 | 0.754 | 0.635 | 0.635 | 0.84 | 0.592 | 0.52 | 0.543 | 0.592 | 0.592 |
| HARA | 0.242 | 0.223 | 0.247 | 0.302 | 0.236 | 0.622 | 1.03 | 0.762 | 0.758 | 0.967 | 0.79 | 0.824 | 0.715 | 0.788 | 0.713 | 0.214 | 0.234 | 0.203 | 0.291 | 0.228 |
| HCC-15 | 0.706 | 0.724 | 0.74 | 0.711 | 0.752 | 0.681 | 0.737 | 0.798 | 0.561 | 0.785 | 0.947 | 0.802 | 0.927 | 0.937 | 0.954 | 0.232 | 0.22 | 0.208 | 0.235 | 0.226 |
| HCC-44 | 0.966 | 1.01 | 0.973 | 0.923 | 1 | 0.975 | 0.995 | 0.967 | 0.904 | 1.04 | 0.787 | 0.736 | 0.768 | 0.766 | 0.77 | 0.691 | 0.583 | 0.693 | 0.598 | 0.716 |
| HCC-78 | 0.504 | 0.516 | 0.501 | 0.403 | 0.52 | 0.599 | 0.816 | 0.776 | 0.742 | 0.862 | 0.364 | 0.324 | 0.356 | 0.363 | 0.318 | 0.639 | 0.873 | 0.857 | 0.918 | 0.859 |
